# Measured values taken from patent publication US10322177B2, “Activation of immune-related signaling pathways in cells via optofection” (Nant Holdings IP, LLC, priority 2015, dated 2019).
# Key:
# Assay type in all cases: cell-based, murine
# [1] = test system: RAW-Lucia ISG cells; assay: RAW-Lucia ISG luciferase reporter, gold nanoparticle optofection of cGAMP (photomicrographs, FIGS. 2A-2C)
# Description: FIGS. 2A-2C illustrate experimental evidence indicating the validity of the disclosed techniques though the use of RAW-Lucia® ISG cells that express luciferase when a Type I IFN response pathway is activated (see FIG. 3) by a CDN.
# FIG. 2A represents an experiment where gold nanoparticles lacking target cell ligands (here ligand for […]) and cGAMP cargo material are introduced to the cell population. No electro-magnetic stimulation is applied.
# FIG. 2B represents an experiment where gold nanoparticles lacking target cell ligands (ligand for CD14) and cGAMP cargo material are introduced to the cell population. In this experiment, the nanoparticles were exposed to 3 mJ pulsed laser. […] The luciferase expression in FIG. 2B is considered to be present in response to random proximity of the gold nanoparticles to cells when the gold nanoparticles are excited by the laser.
# FIG. 2C represents an experiment where gold nanoparticles having a CD14 ligand and cGAMP cargo material are both introduced to the cell population. In this case, the nanoparticles attach to the target cells.
# The immune response induced in the experiments shown in FIGS. 2A-2C is evidenced by production of luciferase in specifically targeted cells. A mentioned previously, the specifically target cells selected for the experiments were RAW-Lucia™ ISG cells commercially available from InvivoGen® (see URL www.invivogen.com/raw-lucia-isg). The RAW-Lucia cells express luciferase gene (Lucia) through various IFN-stimulated response elements (ISRE) as indicated in FIG. 3. Thus, when an IFN response is stimulated, the cells express the luciferase gene. Of specific note, when CDNs are introduced to the RAW-Lucia cells, the IFN response is activated causing expression of the luciferase gene. Therefore, FIG. 2C clearly provides evidence via substantial luciferase expression that the disclosed technique of causing a cell to uptake CDNs (e.g., cGAMP, etc.) via externally generated poration is capable of inducing an immune response. Such result is not necessarily predictable as laser excitation and concomitant cavitation events may damage or interfere with signal transduction events.
# [2] = test system: RAW-Lucia target cells; assay: Relative luciferase activity of RAW-Lucia cells under treatment configurations (FIG. 4)
# Protocol: (§1) FIG. 4 provides further experimental evidence with respect to the efficiency of cargo delivery to the specific target cells. The two charts show the relative luciferase activity of RAW-Lucia target cells four hours after treatment and 24 hours after treatment under different treatment configurations.
# Treatment configuration 1 represents a cell population having no treatment where no nanoparticles and no laser are introduced to the RAW-Lucia cell population.
# Treatment configuration 2 represents a cell population treated with CD14 ligand coated gold nanoparticles and a 10 uM cGAMP solution.
# Treatment configuration 3 is similar to treatment configuration 2 with the exception that a 1 uM cGAMP solution was introduced to the cell population rather than a 10 uM cGAMP solution.
# Treatment configuration 4 includes treating the target cells with just nanoparticles coated with CD14 ligand followed by application of laser stimulation.
# Treatment configuration 5 is similar to Treatment 4, although lacking laser stimulation.
# Treatment configuration 6 includes treating the cell population with just a 10 uM cGAMP solution without nanoparticles or application of laser stimulation.
# [3] = test system: RAW-Lucia target cells; assay: Relative luciferase activity of RAW-Lucia cells after BLAST delivery (FIG. 5); details: Treatment 2: BLAST, 2.5 uM cGAMP solution; 4 hour and 24 hour
# Protocol: as §1, with “FIG. 5” for “FIG. 4”, “target cells with respect to using a biophotonic laser-assisted surgery tool (BLAST, as described in Nature Methods 12, 439-444 (2015)).” for “target cells.”, “charts of FIG. 5” for “charts”, “under three” for “under”
# Treatment configuration 1 represents a control group where the cell population is not treated in order to provide a base line result.
# Treatment configuration 2 leverages BLAST where the cell population is bathed in a 2.5 uM cGAMP solution.
# Treatment configuration 3 includes co-incubation of the cell populations with a 2.5 uM cGAMP solution. However, the cell population is not exposed to laser stimulation via BLAST.
# It should be appreciated that FIG. 5 illustrates the efficacy of a method of inducing an interferon response in specific target cells, including target cells within a heterogeneous cell population. Free cyclic di-nucleotide cargo (i.e., cGAMP in the scenario of FIG. 5) was introduced to the cell population such that the cGAMP remained external to the target cells in a 2.5 uM solution. […]
# [4] = gold nanoparticles having a CD14 ligand plus cGAMP, 2 mJ pulsed laser (FIG. 2C)
smiles,measurement,setting,value
Nc1nc2c(ncn2[C@@H]2O[C@@H]3COP(=O)(O)O[C@H]4[C@@H](O)[C@H](n5cnc6c(N)ncnc65)O[C@@H]4COP(=O)(O)O[C@@H]2[C@@H]3O)c(=O)[nH]1 [cGAMP],cell viability,[1]; [4],substantially all cells retained viability
same,luciferase expression,[1]; [4],nearly all cells express luciferase
same,luciferase expression,"[1]; gold nanoparticles lacking target cell ligands plus cGAMP, 3 mJ pulsed laser (FIG. 2B)",some cells express luciferase
same,luciferase expression,"[1]; gold nanoparticles lacking target cell ligands plus cGAMP, no electro-magnetic stimulation (FIG. 2A)",very little or negligible luciferase expression
same,relative luciferase activity,"[2]; Treatment 2: CD14 ligand coated gold nanoparticles, 10 uM cGAMP solution, laser, 4 h and 24 h after treatment",significant luciferase activity
same,relative luciferase activity,"[2]; Treatment 3: CD14 ligand coated gold nanoparticles, 1 uM cGAMP solution, laser, 4 h and 24 h after treatment",fairly similar to Treatment 2
same,relative luciferase activity,"[2]; Treatment 6: 10 uM cGAMP solution only, no nanoparticles, no laser",reduced level of luciferase activity
same,relative luciferase activity,[3],significant luciferase activity
